In US20220073557A1, “FLUORINATED BILE ACIDS” (NZP UK LIMITED, priority 2018, published 2022):

How the values were obtained:
[1] = test system: mitochondrial respiratory chain complex I; experiment: Complex I assay, left striatum brain homogenate of mice dosed with or without MPTP; type: in vivo, mouse; conditions: for Complex I activity with concurrent MPTP treatment: left striatum
Experimental: (§1) Ex vivo mice brain was homogenated in a buffer of 250 mM sucrose, 20 mM HEPES, 3 mM EDTA, pH 7.5 at 4° C. Homogenisation was carried out using a Dounce homogenizer, for cortex samples, and by repetitive passage through a 0.5 mm syringe for isolated striatum. Samples were then incubated with 30 μl of detergent from the AbCam colorimetric Complex I assay kit on ice for 20 minutes. Samples are then centrifuged at 13,000 rpm for 30 mins. Triplicate samples per condition were blocked using the kit blocking buffer on the AbCam colorimetric Complex I assay kit plate for 3 hours. Samples are then washed using the kit wash buffer 3 times before the addition of the kit assay buffer containing NADH and colorimetric dye. The assay plate is read on a plate reader in a kinetic assay programme reading 450 nm in a 30 second interval for 50 minutes.

[2] = test system: sAD and familial AD (PSEN1 mutants) patient fibroblasts; experiment: Total cellular ATP levels in Alzheimer's disease patient fibroblasts; type: cell-based, human; conditions: 24 hour treatment at 100 nM, 21% restores to control levels
Experimental: Briefly, fibroblasts were cultured as and plated into white 384 well plates with 5000 cells per well in 50 μl of media volume. The plates are left overnight in an incubator to allow the fibroblasts to adhere to the plate surface. The following morning the Glucose based medium is replaced with 25 μl of Galactose based medium. The compounds are added to the plates using a ECHO 550 liquid handling system. The wells were dosed to provide an 8-point concentration range of 0.06 nM-300 nM of compound. After dosing the wells are topped up with a further 25 μl of Galactose based medium and then left in an incubator for 24 hours. Following this incubation the medium is removed from the plate and the wells are washed twice with sterile PBS. The wells are filled with 25 μl of Sterile PBS followed by 12.5 μl of Lysis solution from the ATPlite™ Luminescence ATP detection assay system (Perkin Elmer), including 16 cell free wells to use as blank controls. The plate is then placed on a rotary shaker for 5 mins at 700 rpm. Following the shaking 12.5 μl of ATP substrate solution (Perkin Elmer) is added to each well and a further 5 min of shaking. The plate is then placed in darkness for 10 minutes prior to reading. Using a PHERAStar® plate reader, luminescence intensity is recorded. Following the ATP assay the plates are immediately assayed for DNA content in a CyQUANT® assay.
Immediately following The ATP assay DNA content is assessed with the CyQUANT® NF Cell Proliferation Assay Kit (ThermoFisher). CyQUANT® buffer is prepared immediately before the assay and is comprised of 1 ul CyQUANT® dye per ml×1 HBSS solution. 12.5 ul of CyQUANT® buffer is added to each well. Plate left in incubator for 1 hour then read on a PHERAStar® Plate reader with excitation at 497 nm and emission at 520 nm.
Data shown in the Table 6 below is the mean increase in ATP levels after 24 hour treatment with compounds at 100 nM concentration.

[3] = test system: sporadic PD patient fibroblast lines; experiment: Seahorse assay (oxygen consumption, extracellular acidification rate) in sPD fibroblasts; type: cell-based, human
Experimental: Fibroblasts are plated into Seahorse 24 well plates with 50,000 cells per well. Cells are left to attach for 2 days. Media is changed to Seahorse DMEM media with glucose and sodium pyruvate and left to equilibrate at 37 degrees normal air CO2 for 1 hour. The plate is entered into the Seahorse machine and run on a program of mix (2 minutes), wait (3 minutes) and measure (3 minutes). After three measurements of basal respiration and ECAR; 0.5 μM oligomycin is injected after which another three measurements are taken; then 0.5 μM of FCCP is injected and three measurements taken and finally 1 μM rotenone is injected and three measurements taken. After all measurements are complete, cells are stained with 10 μM Hoescht and imaged using the InCell to count the number of cells per well for normalisation. This classical ritochondrial stress test experimental protocol allows us to calculate the basal mitochondrial respiration, ATP linked respiration (the amount which is coupled to ATP generation), the maximal and spare respiratory capacity, the non-mitochondrial respiration rate and the extracellular acidification rate which is a proxy measure of glycosolysis.

[4] = test system: sporadic PD patient fibroblasts; experiment: Mitochondrial membrane potential (MMP, TMRM) in sporadic PD patient fibroblasts; type: cell-based; conditions: Homo sapiens, Fibroblast, 24 h
Experimental: Fibroblasts were cultured in DMEM (Invitrogen) and routinely subcultured every 3-5 days using trypsin to dissociate them.
Fibroblasts were cultured and plated into a Griener black 384 pClear® plate at 10000 cells per well in 50 μl of media volume. The plates are left overnight in an incubator to allow the fibroblasts to adhere to the plate surface. The following morning the Glucose based medium is replaced with 25 μl of Galactose based media. The plates were then dosed with the compounds using an ECHO® 550 liquid handling system. The wells were dosed to provide an 8-point concentration range of 0.06 nM-300 nM of compound. After dosing the wells are topped up with a further 25 μl of Galactose based medium and then left in an incubator for 24 hours. After 24 hours, the medium is removed from the wells and replaced with 25 ul phenol free Minimal essential medium with 100 nM TMRM (Sigma) and 10 μM Hoechst Stain (Sigma). The plate is returned to the incubator for another hour after which the stain medium is removed and replaced with 25 ul Phenol free MEM. The plate is then imaged using an IN Cell high content microscope (GE Healthcare) with 10 fields of view per well in 2 channels, Cy3 excitation 542 nm, emission 604-64 nm; and the DAPI excitation 350 nm, emission 450-55 nm at 37° C. with CO2. After imaging the plate is disposed of and the images are Data mined using the INCell developer Toolkit (GE Healthcare).
After the assays had been repeated in triplicate per line and compound the data was then inputted into Graph pad Prism 7 software suite where a dose response curve is generated using the default “[Agonist] vs response (three parameters)” equation.
From this EC50 values, lowest response and maximal response were taken and used to calculate the Geometric mean between the 5 different lines assessed.
The mitochondrial membrane potential was measured in fibroblasts from 6 (Table 1) or 3 (Table 2) patients with sporadic Parkinson's disease when treated with Compounds of the invention or Comparator compounds. The results are shown in Tables 1 and 2, where “Bottom”=max response with lowest dose of compound (0.06 nM) and “top”=max response with highest dose of compound (300 nM).

[5] = test system: mitochondrial respiratory chain complex I; experiment: Complex I assay, whole brain homogenate of dosed wild type mice; type: in vivo; conditions: wild type mouse whole brain homogenate, FIG. 3
Experimental: as §1

[6] = test system: dopaminergic neurons derived from sPD patients (iNeurons); experiment: Activated caspase 3 immunofluorescence staining in iNeurons; type: cell-based, human; conditions: untreated sPD 162
Experimental: Briefly, iNPCs are plated in a 6-well plate and cultured for 2 days in DMEM/F-12 medium with Glutamax™ supplemented with 1% NEAA, 2% B27 (Gibco) and 2.5 μM of DAPT. On day 3, DAPT is removed and the medium is supplemented with 1 μM smoothened agonist (SAG) and FGF8 (75 ng/ml) for additional 10 days. Neurons are replated at this stage. Subsequently SAG and FGF8 are withdrawn and replaced with BDNF (30 ng/ml), GDNF (30 ng/ml), TGF-b3 […] and dcAMP (2 mM, Sigma) for 15 days.
Cells are plated into 96 well plates and fixed using 4% paraformaldehyde for 30 minutes. After PBS washes cells are permeabilised using 0.1% Triton™ X-100 for 10 minutes and blocked using 5% goat serum for 1 hour. Cells are incubated with primary antibodies tyrosine hydroxylase (St John's Laboratory); DAT (Abcam); Tuj (Millipore); Tom20 (BD Biosciences); activated caspase 3 (Cell Signaling); alpha synuclein (Cell Signaling); phosphorylated alpha synuclein (Millipore) at 4° C. for 16 hours. Cells are washed using PBS-Tween® and incubated with Alexa Fluor™-conjugated secondary antibodies 488 and 568 (Invitrogen) and Hoescht (Sigma) 1 μM prior to imaging. Imaging was performed using the Opera Phenix™ high content imaging system (Perkin Elmer).

Structure (SMILES): C[C@H](CCC(=O)O)[C@H]1CC[C@H]2[C@@H]3[C@@H](O)C[C@@H]4C[C@@H](O)C(F)(F)C[C@]4(C)[C@H]3CC[C@]12C [Compound 7, 2,2-difluoro-3β,7β-dihydroxy-5β-cholanic acid]
- Increase in complex I activity over untreated controls ([1]; left striatum mouse brain homogenate, Vehicle+12 mg Compound 7 alone, FIG. 4): approximately 30%
- Complex I activity with concurrent MPTP treatment ([1]; MPTP + 1 mg Compound 7, p<0.01 vs MPTP alone): retains complex I at normal levels
- Complex I activity with concurrent MPTP treatment ([1]; MPTP + increased doses (4 mg, 12 mg) of Compound 7): appears to prevent any loss of complex I activity by MPTP
- % increase over vehicle treated (mean increase in ATP levels) [2]: 24%
- Mitochondrial respiration (basal, maximal and ATP linked respiration; oxygen consumption) ([3]; 6 sPD fibroblast lines, dosed at EC90 (UDCA 100 nM, Compound 7 50 nM), FIG. 1A-1C): significantly improves all three mitochondrial parameters
- Extracellular acidification rate (ECAR, proxy measure of glycolysis) ([3]; 6 sPD fibroblasts, FIG. 2): significantly improved
- EC90 ([3]; Homo sapiens, Fibroblast, read-out: EC90 concentration): 50 nM
- activity at 60 pM ([4]; read-out: MMP Bottom (% of vehicle treated)): 100%
- EC50 ([4]; read-out: MMP EC50 (nM)): 4.07 nM
- activity at 0.3 µM ([4]; read-out: MMP Top (% of vehicle treated)): 114%
- Increase in Complex I activity compared to untreated controls ([5]; 4 mg/kg dose): approximately 380%
- Increase in Complex I activity compared to untreated controls ([5]; 12 mg/kg dose): approximately 800%
- Activated caspase 3 levels [6]: 100 % of level in iNeurons from Controls
